Measurements published in ChEMBL document CHEMBL5518193, “Discovery of N-alkyl-N-benzyl thiazoles as novel TRPC antagonists for the treatment of glioblastoma multiforme” (Eur J Med Chem, 2024).

How the values were obtained:
[1] = AUC (0 to t) in BALB/c mouse at 50 mg/kg, ip administered as liposome encapsulated form and measured upto 24 hrs by LC-MS/MS analysis; assay type: ADME, organism-based; conditions: in vivo
[2] = Selectivity index, ratio of IC50 for human MKN-45 cells to IC50 for human U87 cells; assay type: functional
[3] = system: U-87 MG; experiment: Antitumor activity against human U87 cells xenografted in BALB/c nude mouse assessed as tumor growth inhibition at 25 mg/kg/day administered as liposome encapsulated form for 15 days and measured every 3 days by vernier caliper; assay type: functional, U-87MG ATCC; conditions: 360 h, time 15 day, read-out: TGI
[4] = Selectivity index, ratio of IC50 for human HCT-116 cells to IC50 for human U87 cells; assay type: functional
[5] = Apparent clearance in BALB/c mouse at 50 mg/kg, ip administered as liposome encapsulated form and measured upto 24 hrs by LC-MS/MS analysis; assay type: ADME, organism-based; conditions: in vivo, read-out: CL(app) (converted)
[6] = AUC (0 to infinity) in BALB/c mouse at 25 mg/kg, ip administered as liposome encapsulated form and measured upto 24 hrs by LC-MS/MS analysis; assay type: ADME, organism-based; conditions: in vivo
[7] = molecular target: T1, Short transient receptor potential channel 7 (Homo sapiens, UniProt Q9HCX4); experiment: Antagonist activity at human TRPC7 stably expressed in HEK293 cells inhibition of calcium influx by calcium fluorescence assay; assay type: cell-based
T1 sequence (Q9HCX4 whole entry): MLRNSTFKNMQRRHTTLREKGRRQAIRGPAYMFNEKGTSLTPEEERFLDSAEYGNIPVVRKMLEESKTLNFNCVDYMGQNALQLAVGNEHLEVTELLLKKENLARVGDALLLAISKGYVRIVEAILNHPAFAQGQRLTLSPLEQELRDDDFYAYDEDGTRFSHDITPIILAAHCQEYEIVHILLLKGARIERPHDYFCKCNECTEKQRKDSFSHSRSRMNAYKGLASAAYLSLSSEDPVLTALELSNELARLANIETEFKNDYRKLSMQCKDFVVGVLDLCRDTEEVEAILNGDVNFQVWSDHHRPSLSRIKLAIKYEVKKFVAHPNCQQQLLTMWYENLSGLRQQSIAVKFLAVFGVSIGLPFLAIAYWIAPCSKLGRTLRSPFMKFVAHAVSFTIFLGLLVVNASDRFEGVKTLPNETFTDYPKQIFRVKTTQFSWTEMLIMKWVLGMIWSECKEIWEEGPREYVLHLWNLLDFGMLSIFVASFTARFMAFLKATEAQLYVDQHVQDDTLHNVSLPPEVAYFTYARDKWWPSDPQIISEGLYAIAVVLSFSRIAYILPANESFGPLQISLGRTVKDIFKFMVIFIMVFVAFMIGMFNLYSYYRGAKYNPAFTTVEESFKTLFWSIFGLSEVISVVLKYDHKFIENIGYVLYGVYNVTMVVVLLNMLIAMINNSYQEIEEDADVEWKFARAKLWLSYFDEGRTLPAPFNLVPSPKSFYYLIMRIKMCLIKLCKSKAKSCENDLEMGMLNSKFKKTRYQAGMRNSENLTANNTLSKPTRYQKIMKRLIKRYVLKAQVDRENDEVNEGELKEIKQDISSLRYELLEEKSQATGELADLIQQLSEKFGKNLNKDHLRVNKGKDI

[8] = molecular target: T2, Short transient receptor potential channel 4 (Mus musculus, UniProt Q9QUQ5); experiment: Antagonist activity at mouse TRPC4 stably expressed in HEK293 cells inhibition of calcium influx by calcium fluorescence assay; assay type: cell-based
T2 sequence (Q9QUQ5 whole entry): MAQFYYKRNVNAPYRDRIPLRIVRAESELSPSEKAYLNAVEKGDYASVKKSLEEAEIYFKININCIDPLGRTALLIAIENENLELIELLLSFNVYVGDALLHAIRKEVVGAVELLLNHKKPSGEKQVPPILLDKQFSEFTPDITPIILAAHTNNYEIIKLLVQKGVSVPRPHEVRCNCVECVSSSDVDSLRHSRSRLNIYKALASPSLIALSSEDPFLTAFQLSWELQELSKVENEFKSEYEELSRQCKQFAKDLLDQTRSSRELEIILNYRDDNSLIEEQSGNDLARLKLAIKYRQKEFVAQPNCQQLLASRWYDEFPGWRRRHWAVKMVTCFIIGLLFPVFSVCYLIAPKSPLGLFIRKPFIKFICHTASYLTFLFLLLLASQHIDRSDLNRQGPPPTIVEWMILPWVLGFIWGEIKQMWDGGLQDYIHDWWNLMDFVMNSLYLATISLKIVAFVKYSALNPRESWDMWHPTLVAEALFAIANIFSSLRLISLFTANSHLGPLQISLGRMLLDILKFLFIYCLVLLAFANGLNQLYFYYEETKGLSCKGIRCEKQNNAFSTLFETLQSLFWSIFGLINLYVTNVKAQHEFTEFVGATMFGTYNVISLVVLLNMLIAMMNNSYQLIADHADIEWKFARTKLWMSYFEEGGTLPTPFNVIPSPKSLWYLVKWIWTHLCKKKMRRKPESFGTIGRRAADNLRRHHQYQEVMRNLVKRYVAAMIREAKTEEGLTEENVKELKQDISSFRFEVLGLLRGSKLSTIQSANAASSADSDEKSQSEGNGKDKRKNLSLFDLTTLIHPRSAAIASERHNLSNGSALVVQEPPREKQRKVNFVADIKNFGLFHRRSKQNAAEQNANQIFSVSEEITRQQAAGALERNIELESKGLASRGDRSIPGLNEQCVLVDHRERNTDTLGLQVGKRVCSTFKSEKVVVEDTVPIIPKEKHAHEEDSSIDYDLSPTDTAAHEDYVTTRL

[9] = system: U-87 MG; experiment: Antitumor activity against human U87 cells xenografted in BALB/c nude mouse assessed as tumor growth inhibition at 50 mg/kg/day administered as liposome encapsulated form for 15 days and measured every 3 days by vernier caliper; assay type: functional, U-87MG ATCC; conditions: 360 h, time 15 day, read-out: TGI

NCCN(Cc1ccc2ccccc2c1)c1nc(C(=O)Nc2ccc(O)cc2)cs1
AUC(0-t) at 24 h [1]: 16600 ng·h/mL | Ratio IC50 [2]: 2 | inhibition in vivo at 25 mg/kg/day [3]: 45.8% | Ratio IC50 [4]: 2 | CL/F [5]: 49.6 mL/min/kg | AUC(0-inf) [6]: 6920 ng·h/mL | IC50 [7]: 3.4 µM | IC50 [8]: 12.2 µM | inhibition in vivo at 50 mg/kg/day [9]: 49.4%
